For the assay, the system named is Influenza A virus. The experiment in a line: Antiviral activity against influenza A virus (A/Puerto Rico/8/34(H1N1)) infected in MDCK cells assessed as inhibition of virus-induced cytopathic effect incubated for 48 hrs by crystal violet staining based assay. The conditions noted are these: A/Puerto Rico/8/1934(H1N1). The format is functional, organism-based. Background: Damage to the host cells serves as the signal in cytopathic effect assays.

As to `COC(=O)C[C@@H]1[C@@]2(C)[C@H]3CC[C@]4(C)C(=C3[C@@]3(O)[C@@H](OC(C)=O)C(=O)[C@]1(C)C[C@@]23O)CC(=O)O[C@H]4c1ccoc1`, the IC50 (commonly the midpoint of a concentration-inhibition curve) turned out to be 77.1 µM.

`COC(=O)C[C@H]1[C@@]2(C)C[C@]3(O)[C@H](C(=O)[C@H]2OC(C)=O)C2=C4CC(=O)O[C@@H](c5ccoc5)[C@]4(C)CC[C@@H]2[C@]13C`: the IC50 amounted to 114 µM.

With `COC(=O)C[C@H]1[C@@]2(C)C[C@]3(O)[C@H](C(=O)[C@H]2OC(C)=O)C2=C(CC[C@]4(C)C2=CC(=O)O[C@H]4c2ccoc2)[C@]13C`, the IC50 was 122 µM.

`NC(=O)c1ncn([C@@H]2O[C@H](CO)[C@@H](O)[C@H]2O)n1` [RIBAVIRIN]: the IC50 worked out at 186 µM.
